Experimental data reported in US20220089575A1, “FARNESOID X RECEPTOR AGONISTS AND USES THEREOF” (Metacrine, Inc., priority 2017, published 2022).
Counter-ions that a name gives are not always drawn.

The molecules below were run against T1, hFXR (Homo sapiens, UniProt Q96RI1) (assay: In Vitro FXR Assay (TK): TK-ECRE-luc reporter in transfected CV-1 cells). Settings: 18 hrs, luminescence, maximum efficacy of <25% of the Fexarmine control classified as '+'.
T1 construct: expressed in transfected cells; host or cells: CV-1 cells
T1 sequence (Q96RI1 1-486): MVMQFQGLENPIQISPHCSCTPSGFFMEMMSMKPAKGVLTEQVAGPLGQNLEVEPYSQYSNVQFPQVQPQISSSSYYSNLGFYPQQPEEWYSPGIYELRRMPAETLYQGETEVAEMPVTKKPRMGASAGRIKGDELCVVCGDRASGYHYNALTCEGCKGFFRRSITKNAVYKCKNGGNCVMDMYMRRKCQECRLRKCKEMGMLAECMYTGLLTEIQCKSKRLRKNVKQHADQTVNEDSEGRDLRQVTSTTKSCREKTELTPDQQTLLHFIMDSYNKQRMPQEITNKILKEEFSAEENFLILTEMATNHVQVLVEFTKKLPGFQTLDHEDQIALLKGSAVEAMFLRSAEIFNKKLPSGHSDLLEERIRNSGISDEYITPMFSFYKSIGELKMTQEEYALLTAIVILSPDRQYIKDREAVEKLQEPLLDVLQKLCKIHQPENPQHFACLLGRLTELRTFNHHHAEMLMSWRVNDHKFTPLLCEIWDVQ
T1 sequence (P19793 1-462 partner): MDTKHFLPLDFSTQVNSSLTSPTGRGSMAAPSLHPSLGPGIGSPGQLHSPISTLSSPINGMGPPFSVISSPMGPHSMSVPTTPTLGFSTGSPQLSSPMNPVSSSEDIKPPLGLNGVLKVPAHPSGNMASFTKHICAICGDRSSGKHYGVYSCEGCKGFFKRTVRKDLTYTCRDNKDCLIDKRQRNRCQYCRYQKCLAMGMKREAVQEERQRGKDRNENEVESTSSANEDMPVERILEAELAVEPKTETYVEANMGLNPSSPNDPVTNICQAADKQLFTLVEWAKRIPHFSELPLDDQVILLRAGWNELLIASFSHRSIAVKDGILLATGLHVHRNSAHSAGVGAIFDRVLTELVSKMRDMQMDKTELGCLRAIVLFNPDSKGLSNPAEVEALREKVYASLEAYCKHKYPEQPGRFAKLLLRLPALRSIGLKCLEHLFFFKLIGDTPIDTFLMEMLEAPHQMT
Type: cell-based
How it was run: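 Luciferase read-out after 18 h compound exposure of CV-1 cells carrying transfected hFXR plus hRXR expression plasmids, TK-ECRE-luc reporter and pCMX-YFP. Cells cultured in charcoal-stripped FBS before transfection; compounds serially diluted in DMSO.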

Structure (SMILES) | EC50
COc1ccc([C@H]2CC[C@H](CN(c3cccc(-c4cnn(C5CC5)c4)c3)C(=O)[C@H]3CC[C@H](OC(=O)N4CC(CS(C)(=O)=O)C4)CC3)CC2)cc1C [Compound 9, trans-4-((3-(1-cyclopropyl-1H-pyrazol-4-yl)phenyl)((trans-4-(4-methoxy-3-methylphenyl)cyclohexyl)methyl)carbamoyl)cyclohexyl 3-((methylsulfonyl)methyl)azetidine-1-carboxylate] | ≤ 250 nM
COc1ccc([C@H]2CC[C@H](CN(c3cccc(-c4cnn(C5CC5)c4)c3)C(=O)[C@H]3CC[C@H](OC(=O)[C@H]4CC[C@H](O)CC4)CC3)CC2)cc1C [Compound 10, trans-4-((3-(1-Cyclopropyl-1H-pyrazol-4-yl)phenyl)((trans-4-(4-methoxy-3-methylphenyl)cyclohexyl)methyl)carbamoyl)cyclohexyl trans-4-hydroxycyclohexanecarboxylate] | ≤ 250 nM
CNCCO[C@H]1CC[C@H](C(=O)N(C[C@H]2CC[C@H](c3ccc(OC)c(C)c3)CC2)c2cccc(-c3cnc(C4CC4)s3)c2)CC1 [Compound 11, trans-N-(3-(2-Cyclopropylthiazol-5-yl)phenyl)-N-((trans-4-(4-methoxy-3-methylphenyl)cyclohexyl)methyl)-4-(2-(methylamino)ethoxy) cyclohexanecarboxamide hydrochloride] | 250 to 1000 nM
COc1ccc([C@H]2CC[C@H](CN(c3cccc(-c4cnn(C(C)C)c4)c3)C(=O)[C@H]3CC[C@H](OCC(=O)O)CC3)CC2)cc1C [Compound 12, 2-((trans-4-((3-(1-Isopropyl-1H-pyrazol-4-yl)phenyl)((trans-4-(4-methoxy-3-methylphenyl)cyclohexyl)methyl)carbamoyl)cyclohexyl)oxy)acetic acid] | ≤ 250 nM
COc1ncc(-c2cccc(N(C[C@H]3CC[C@H](c4ccc(OC)c(C)c4)CC3)C(=O)[C@H]3CC[C@H](OC(=O)N(C)C)CC3)c2)s1 [Compound 13, trans-4-(((trans-4-(4-Methoxy-3-methylphenyl)cyclohexyl)methyl)(3-(2-methoxythiazol-5-yl)phenyl)carbamoyl)cyclohexyl dimethylcarbamate] | ≤ 250 nM
COCCO[C@H]1CC[C@H](C(=O)N(C[C@H]2CC[C@H](c3ccc(OC)c(C)c3)CC2)c2cccc(-c3cnc(OC)s3)c2)CC1 [Compound 13.01, trans-N-((trans-4-(4-Methoxy-3-methylphenyl)cyclohexyl)methyl)-4-(2-methoxyethoxy)-N-(3-(2-methoxythiazol-5-yl)phenyl) cyclohexanecarboxamide] | ≤ 250 nM
COCCCO[C@H]1CC[C@H](C(=O)N(C[C@H]2CC[C@H](c3ccc(OC)c(C)c3)CC2)c2cccc(-c3cnc(OC)s3)c2)CC1 [Compound 13.02, trans-N-((trans-4-(4-Methoxy-3-methylphenyl)cyclohexyl)methyl)-4-(3-methoxypropoxy)-N-(3-(2-methoxythiazol-5-yl)phenyl) cyclohexanecarboxamide] | ≤ 250 nM
COc1ncc(-c2cccc(N(C[C@H]3CC[C@H](c4ccc(OC)c(C)c4)CC3)C(=O)[C@H]3CC[C@H](OCCO)CC3)c2)s1 [Compound 13.03, trans-4-(2-Hydroxyethoxy)-N-((trans-4-(4-methoxy-3-methylphenyl)cyclohexyl)methyl)-N-(3-(2-methoxythiazol-5-yl)phenyl)cyclohexanecarboxamide] | ≤ 250 nM
COc1ncc(-c2cccc(N(C[C@H]3CC[C@H](c4ccc(OC)c(C)c4)CC3)C(=O)[C@H]3CC[C@H](OCCCO)CC3)c2)s1 [Compound 13.04, trans-4-(3-Hydroxypropoxy)-N-((trans-4-(4-methoxy-3-methylphenyl)cyclohexyl)methyl)-N-(3-(2-methoxythiazol-5-yl)phenyl) cyclohexanecarboxamide] | ≤ 250 nM
COc1ccc([C@H]2CC[C@H](CN(c3cccc(-c4cnc(C5CC5)s4)c3)C(=O)[C@H]3CC[C@H](OCCN(C)C)CC3)CC2)cc1C [Compound 13.05, trans-N-(3-(2-Cyclopropylthiazol-5-yl)phenyl)-4-(2-(dimethylamino)ethoxy)-N-((trans-4-(4-methoxy-3-methylphenyl)cyclohexyl)methyl) cyclohexanecarboxamide] | 250 to 1000 nM
CCOC(=O)C[C@H]1CC[C@H](C(=O)N(C[C@H]2CC[C@H](c3ccc(OC)c(C)n3)CC2)c2cccc(-c3cnn(C4CC4)c3)c2)CC1 [Compound 14, Ethyl 2-(trans-4-((3-(1-cyclopropyl-1H-pyrazol-4-yl)phenyl)((trans-4-(5-methoxy-6-methylpyridin-2-yl)cyclohexyl)methyl)carbamoyl)cyclohexyl)acetate] | ≤ 250 nM
COc1ccc([C@H]2CC[C@H](CN(c3cccc(-c4cnn(C5CC5)c4)c3)C(=O)[C@H]3CC[C@H](CO)CC3)CC2)cc1C [Compound 15, trans-N-(3-(1-Cyclopropyl-1H-pyrazol-4-yl)phenyl)-4-(hydroxymethyl)-N-((trans-4-(4-methoxy-3-methylphenyl)cyclohexyl)methyl) cyclohexanecarboxamide] | ≤ 250 nM
CN(C)c1ccc([C@H]2CC[C@H](CN(c3cccc(-c4cnc(C5CC5)s4)c3)C(=O)[C@H]3CC[C@H](C(=O)O)CC3)CC2)cn1 [Compound 16, trans-4-((3-(2-Cyclopropylthiazol-5-yl)phenyl)((trans-4-(6-(dimethylamino)pyridin-3-yl)cyclohexyl)methyl)carbamoyl)cyclohexanecarboxylic acid] | ≤ 250 nM
COc1ccc([C@H]2CC[C@H](CN(c3cccc(-c4cnc(C5CC5)s4)c3)C(=O)[C@H]3CC[C@H](C(=O)O)CC3)CC2)cc1C [Compound 17, trans-4-((3-(2-Cyclopropylthiazol-5-yl)phenyl)((trans-4-(4-methoxy-3-methylphenyl)cyclohexyl)methyl)carbamoyl)cyclohexanecarboxylic acid] | ≤ 250 nM

Results, then the molecule that gave them:

EC50 | Structure (SMILES)
≤ 250 nM | COc1ncc(-c2cccc(N(C[C@H]3CC[C@H](c4ccc(OC)c(C)c4)CC3)C(=O)[C@H]3CC[C@H](CO)CC3)c2)s1 [Compound 15.01, trans-4-(Hydroxymethyl)-N-((trans-4-(4-methoxy-3-methylphenyl)cyclohexyl)methyl)-N-(3-(2-methoxythiazol-5-yl)phenyl)cyclohexanecarboxamide]
≤ 250 nM | COc1ccc([C@H]2CC[C@H](CN(c3cccc(-c4cnc(C5CC5)s4)c3)C(=O)[C@H]3CC[C@H](CO)CC3)CC2)cc1C [Compound 15.02, trans-N-(3-(2-Cyclopropylthiazol-5-yl)phenyl)-4-(hydroxymethyl)-N-((trans-4-(4-methoxy-3-methylphenyl)cyclohexyl)methyl) cyclohexanecarboxamide]
≤ 250 nM | COc1ccc([C@H]2CC[C@H](CN(c3cc(-c4cnn(C(C)C)c4)ccn3)C(=O)[C@H]3CC[C@H](CO)CC3)CC2)nc1C [Compound 15.03, trans-4-(Hydroxymethyl)-N-(4-(1-isopropyl-1H-pyrazol-4-yl)pyridin-2-yl)-N-((trans-4-(5-methoxy-6-methylpyridin-2-yl)cyclohexyl)methyl) cyclohexanecarboxamide]
≤ 250 nM | COc1ccc([C@H]2CC[C@H](CN(c3cc(-c4coc(C5CC5)n4)ccn3)C(=O)[C@H]3CC[C@H](CO)CC3)CC2)nc1C [Compound 15.04, trans-N-(4-(2-Cyclopropyloxazol-4-yl)pyridin-2-yl)-4-(hydroxymethyl)-N-((trans-4-(5-methoxy-6-methylpyridin-2-yl)cyclohexyl)methyl) cyclohexanecarboxamide]
≤ 250 nM | COc1ncc(-c2cccc(N(C[C@H]3CC[C@H](c4ccc(OC)c(C)c4)CC3)C(=O)[C@H]3CC[C@H](C(=O)O)CC3)c2)s1 [Compound 17.01, trans-4-(((trans-4-(4-Methoxy-3-methylphenyl)cyclohexyl)methyl)(3-(2-methoxythiazol-5-yl)phenyl)carbamoyl)cyclohexanecarboxylic acid]
≤ 250 nM | COc1ncc(-c2cccc(N(C[C@H]3CC[C@H](c4ccc(OC)c(C)c4)CC3)C(=O)C34CCC(C(=O)O)(CC3)CC4)c2)s1 [Compound 17.02, 4-(((trans-4-(4-Methoxy-3-methylphenyl)cyclohexyl)methyl)(3-(2-methoxythiazol-5-yl)phenyl)carbamoyl)bicyclo[2.2.2]octane-1-carboxylic acid]
≤ 250 nM | COc1ccc([C@H]2CC[C@H](CN(c3cccc(-c4cnc(C5CC5)s4)c3)C(=O)[C@H]3CC[C@H](C(=O)O)CC3)CC2)cc1Cl [Compound 17.03, trans-4-(((trans-4-(3-Chloro-4-methoxyphenyl)cyclohexyl)methyl)(3-(2-cyclopropylthiazol-5-yl)phenyl)carbamoyl)cyclohexanecarboxylic acid]
